Experimental data published in publication PMC12673918, “Design, Synthesis, and Selective Antiproliferative Activity of Indolizine Derivatives as Microtubule Destabilizers” (Archiv Der Pharmazie, 2025).

Legend:
tubulin = assay: Tubulin polymerization (inhibition) assay kit; type: biochemical; settings: for effect on tubulin polymerization curves (RFU): compounds 5 µM, vs control and paclitaxel; for IC50: n = 2
Protocol: To evaluate the effect of the compounds on tubulin polymerization, the Tubulin Polymerization Assay Kit (Cytoskeleton Inc.) was used according to the manufacturer's instructions. Briefly, 5 µL of the compounds (final concentration ranging from 0.1 to 100 µM) were pipetted per well into a pre‐warmed 96‐well black‐bottom plate at 37°C. After 1 min, 55 µL of the tubulin reaction mix (1X Buffer 1, 0.7X Tubulin Glycerol Buffer, 1 mM GTP, and 2 mg/mL tubulin) was added to each well. Next, after 5 s of shaking, fluorescence detection (excitation: 340–360 nm, emission: 410–460 nm) was performed using a microplate fluorimeter. […] Data were plotted, and IC₅₀ values were determined by nonlinear regression using GraphPad Prism software 9.0.
^c Tubulin polymerization was evaluated using a commercial assay kit, following standard procedures. Compounds were incubated with tubulin, and fluorescence was measured over time to generate kinetic curves and determine the maximum polymerization rate (Vmax). These experiments were carried out in duplicate.

[1] = test system: BT‐20 breast cancer cells; assay: Western blot of cell‐cycle, apoptosis and signaling proteins; type: cell-based; settings: 2.5 µM for 24 h
Protocol: Cells were seeded in 10 cm plates (1.5 × 10⁶ cells/plate) and incubated for 24 h. Subsequently, the cells were treated with the compounds at a concentration of 2.5 µM for 24 h. After treatment, the cells were collected, and the proteins were isolated. A total of 30 µg of proteins were separated electrophoretically on a sodium dodecyl sulfate‐polyacrylamide gel (SDS‐PAGE) and transferred onto a polyvinylidene fluoride (PVDF) membrane (GE Healthcare) using the PowerBlotter Station (Invitrogen) according to the manufacturer's recommendations. After transfer, the membrane was blocked with a 5% (w/v) nonfat milk solution in TBS‐T (0.1 M Tris (pH 7.5), 0.9% NaCl, 0.1% Tween‐20) at room temperature for 1 h under gentle agitation. The membrane was then washed with TBS‐T and incubated with primary antibodies under agitation for approximately 16 h at 4°C. The primary antibodies used were: c‐Myc (#5605), ß‐tubulin (#2128), p21 (#2947), Cyclin D1 (#2978), Bcl‐2 (#15071), p‐AKT ser473 (#4058), and GAPDH (#2118) (Cell Signaling Technology). After primary antibody incubation, the membranes were washed with TBS‐T and incubated at room temperature for 1 h in a TBS‐T solution containing 5% nonfat milk and the HRP‐conjugated secondary antibody. Following the washes with TBS‐T, the membranes were incubated with the SuperSignal West Dura substrate (Thermo Scientific). Immunodetection was analyzed using the ChemiDoc imaging system (Bio‐Rad).

COc1ccc2c(C(=O)c3cc(OC)c(OC)c(OC)c3)c(C(F)(F)F)cn2c1 [Compound 8e, [6‐methoxy‐2‐(trifluoromethyl)indolizin‐1‐yl](3,4,5‐trimethoxyphenyl)methanone]
effect on tubulin polymerization curves (RFU) (tubulin): most potent | IC50 (tubulin): 9.3 µM | Bcl‐2 levels [1]: decrease | cyclin D1 levels [1]: markedly decreased | p21 expression [1]: upregulated

CCCc1cn2cc(OC)ccc2c1C(=O)c1cc(OC)c(OC)c(OC)c1 [Compound 8h, (6‐methoxy‐2‐propylindolizin‐1‐yl)(3,4,5‐trimethoxyphenyl)methanone]
effect on tubulin polymerization curves (RFU) (tubulin): most potent | IC50 (tubulin): 10.9 µM | Bcl‐2 levels [1]: decrease | cyclin D1 levels [1]: markedly decreased | p21 expression [1]: upregulated
